Test results from the NIST ThermoML archive (doi:10.1016/j.jct.2018.01.024).

Assay: mn = molality of the nth substance listed, in mol/kg
Details: Liquid

NC(N)=O [urea] + O
Details | mass density [kg/m3]
274.15 K, 101 kPa, Vibrating tube method, m1 = 0.093 | 1001.57
274.15 K, 101 kPa, Vibrating tube method, m1 = 0.1063 | 1001.81
274.15 K, 101 kPa, Vibrating tube method, m1 = 0.141 | 1002.43
274.15 K, 101 kPa, Vibrating tube method, m1 = 0.152 | 1002.62
274.15 K, 101 kPa, Vibrating tube method, m1 = 0.1809 | 1003.14
274.15 K, 101 kPa, Vibrating tube method, m1 = 0.2423 | 1004.22
274.15 K, 101 kPa, Vibrating tube method, m1 = 0.4362 | 1007.6
274.15 K, 101 kPa, Vibrating tube method, m1 = 0.5644 | 1009.79
274.15 K, 101 kPa, Vibrating tube method, m1 = 1.008 | 1017.11
274.15 K, 101 kPa, Vibrating tube method, m1 = 1.609 | 1026.44
274.15 K, 101 kPa, Vibrating tube method, m1 = 2.505 | 1039.26
275.15 K, 101 kPa, Vibrating tube method, m1 = 0.093 | 1001.6
275.15 K, 101 kPa, Vibrating tube method, m1 = 0.1063 | 1001.84
275.15 K, 101 kPa, Vibrating tube method, m1 = 0.141 | 1002.45
275.15 K, 101 kPa, Vibrating tube method, m1 = 0.152 | 1002.64
275.15 K, 101 kPa, Vibrating tube method, m1 = 0.1809 | 1003.16
275.15 K, 101 kPa, Vibrating tube method, m1 = 0.2423 | 1004.23
275.15 K, 101 kPa, Vibrating tube method, m1 = 0.4362 | 1007.59
275.15 K, 101 kPa, Vibrating tube method, m1 = 0.5644 | 1009.77
275.15 K, 101 kPa, Vibrating tube method, m1 = 1.008 | 1017.04
275.15 K, 101 kPa, Vibrating tube method, m1 = 1.609 | 1026.31
275.15 K, 101 kPa, Vibrating tube method, m1 = 2.505 | 1039.07
276.15 K, 101 kPa, Vibrating tube method, m1 = 0.093 | 1001.61
276.15 K, 101 kPa, Vibrating tube method, m1 = 0.1063 | 1001.85
276.15 K, 101 kPa, Vibrating tube method, m1 = 0.141 | 1002.46
276.15 K, 101 kPa, Vibrating tube method, m1 = 0.152 | 1002.65
276.15 K, 101 kPa, Vibrating tube method, m1 = 0.1809 | 1003.16
276.15 K, 101 kPa, Vibrating tube method, m1 = 0.2423 | 1004.22
276.15 K, 101 kPa, Vibrating tube method, m1 = 0.4362 | 1007.56
276.15 K, 101 kPa, Vibrating tube method, m1 = 0.5644 | 1009.73
276.15 K, 101 kPa, Vibrating tube method, m1 = 1.008 | 1016.96
276.15 K, 101 kPa, Vibrating tube method, m1 = 1.609 | 1026.17
276.15 K, 101 kPa, Vibrating tube method, m1 = 2.505 | 1038.86
277.15 K, 101 kPa, Vibrating tube method, m1 = 0.093 | 1001.61
277.15 K, 101 kPa, Vibrating tube method, m1 = 0.1063 | 1001.85
277.15 K, 101 kPa, Vibrating tube method, m1 = 0.141 | 1002.45
277.15 K, 101 kPa, Vibrating tube method, m1 = 0.152 | 1002.64
277.15 K, 101 kPa, Vibrating tube method, m1 = 0.1809 | 1003.15
277.15 K, 101 kPa, Vibrating tube method, m1 = 0.2423 | 1004.2
277.15 K, 101 kPa, Vibrating tube method, m1 = 0.4362 | 1007.52
277.15 K, 101 kPa, Vibrating tube method, m1 = 0.5644 | 1009.67
277.15 K, 101 kPa, Vibrating tube method, m1 = 1.008 | 1016.85
277.15 K, 101 kPa, Vibrating tube method, m1 = 1.609 | 1026.02
277.15 K, 101 kPa, Vibrating tube method, m1 = 2.505 | 1038.66
278.15 K, 101 kPa, Vibrating tube method, m1 = 0.093 | 1001.59
278.15 K, 101 kPa, Vibrating tube method, m1 = 0.1063 | 1001.82
278.15 K, 101 kPa, Vibrating tube method, m1 = 0.141 | 1002.42
278.15 K, 101 kPa, Vibrating tube method, m1 = 0.152 | 1002.61
278.15 K, 101 kPa, Vibrating tube method, m1 = 0.1809 | 1003.12
278.15 K, 101 kPa, Vibrating tube method, m1 = 0.2423 | 1004.17
278.15 K, 101 kPa, Vibrating tube method, m1 = 0.4362 | 1007.46
278.15 K, 101 kPa, Vibrating tube method, m1 = 0.5644 | 1009.6
278.15 K, 101 kPa, Vibrating tube method, m1 = 1.008 | 1016.74
278.15 K, 101 kPa, Vibrating tube method, m1 = 1.609 | 1025.85
278.15 K, 101 kPa, Vibrating tube method, m1 = 2.505 | 1038.42
278.15 K, 101 kPa, Vibrating tube method, m1 = 3.376 | 1049.57
278.15 K, 101 kPa, Vibrating tube method, m1 = 4.33 | 1060.83
278.15 K, 101 kPa, Vibrating tube method, m1 = 5.39 | 1072.16
278.15 K, 101 kPa, Vibrating tube method, m1 = 8 | 1096.24
278.15 K, 101 kPa, Vibrating tube method, m1 = 9.9 | 1110.86
278.15 K, 101 kPa, Vibrating tube method, m1 = 12.8 | 1129.78
278.15 K, 10000 kPa, Constant-volume piezometry, m1 = 0.1809 | 1007.91
278.15 K, 10000 kPa, Constant-volume piezometry, m1 = 0.4362 | 1012.23
278.15 K, 10000 kPa, Constant-volume piezometry, m1 = 0.5644 | 1014.35
278.15 K, 10000 kPa, Constant-volume piezometry, m1 = 1.609 | 1030.49
278.15 K, 10000 kPa, Constant-volume piezometry, m1 = 2.505 | 1042.94
278.15 K, 10000 kPa, Constant-volume piezometry, m1 = 3.376 | 1053.98
278.15 K, 10000 kPa, Constant-volume piezometry, m1 = 5.39 | 1076.38
278.15 K, 10000 kPa, Constant-volume piezometry, m1 = 8 | 1100.31
278.15 K, 10000 kPa, Constant-volume piezometry, m1 = 10.99 | 1122.33
278.15 K, 10000 kPa, Constant-volume piezometry, m1 = 12.8 | 1133.68
278.15 K, 25000 kPa, Constant-volume piezometry, m1 = 0.1809 | 1014.96
278.15 K, 25000 kPa, Constant-volume piezometry, m1 = 0.4362 | 1019.23
278.15 K, 25000 kPa, Constant-volume piezometry, m1 = 0.5644 | 1021.32
278.15 K, 25000 kPa, Constant-volume piezometry, m1 = 1.609 | 1037.26
278.15 K, 25000 kPa, Constant-volume piezometry, m1 = 2.505 | 1049.56
278.15 K, 25000 kPa, Constant-volume piezometry, m1 = 3.376 | 1060.45
278.15 K, 25000 kPa, Constant-volume piezometry, m1 = 5.39 | 1082.6
278.15 K, 25000 kPa, Constant-volume piezometry, m1 = 8 | 1106.3
278.15 K, 25000 kPa, Constant-volume piezometry, m1 = 10.99 | 1128.15
278.15 K, 25000 kPa, Constant-volume piezometry, m1 = 12.8 | 1139.4
278.15 K, 50000 kPa, Constant-volume piezometry, m1 = 0.1809 | 1026.22
278.15 K, 50000 kPa, Constant-volume piezometry, m1 = 0.4362 | 1030.39
278.15 K, 50000 kPa, Constant-volume piezometry, m1 = 0.5644 | 1032.44
278.15 K, 50000 kPa, Constant-volume piezometry, m1 = 1.609 | 1048.03
278.15 K, 50000 kPa, Constant-volume piezometry, m1 = 2.505 | 1060.07
278.15 K, 50000 kPa, Constant-volume piezometry, m1 = 3.376 | 1070.75
278.15 K, 50000 kPa, Constant-volume piezometry, m1 = 5.39 | 1092.51
278.15 K, 50000 kPa, Constant-volume piezometry, m1 = 8 | 1115.83
278.15 K, 50000 kPa, Constant-volume piezometry, m1 = 10.99 | 1137.36
278.15 K, 50000 kPa, Constant-volume piezometry, m1 = 12.8 | 1148.51
278.15 K, 75000 kPa, Constant-volume piezometry, m1 = 0.1809 | 1036.88
278.15 K, 75000 kPa, Constant-volume piezometry, m1 = 0.4362 | 1040.96
278.15 K, 75000 kPa, Constant-volume piezometry, m1 = 0.5644 | 1042.96
278.15 K, 75000 kPa, Constant-volume piezometry, m1 = 1.609 | 1058.21
278.15 K, 75000 kPa, Constant-volume piezometry, m1 = 2.505 | 1069.97
278.15 K, 75000 kPa, Constant-volume piezometry, m1 = 3.376 | 1080.48
278.15 K, 75000 kPa, Constant-volume piezometry, m1 = 5.39 | 1101.91
278.15 K, 75000 kPa, Constant-volume piezometry, m1 = 8 | 1124.88
278.15 K, 75000 kPa, Constant-volume piezometry, m1 = 10.99 | 1146.09
278.15 K, 75000 kPa, Constant-volume piezometry, m1 = 12.8 | 1157.08
278.15 K, 100000 kPa, Constant-volume piezometry, m1 = 0.1809 | 1046.98
278.15 K, 100000 kPa, Constant-volume piezometry, m1 = 0.4362 | 1050.97
278.15 K, 100000 kPa, Constant-volume piezometry, m1 = 0.5644 | 1052.94
278.15 K, 100000 kPa, Constant-volume piezometry, m1 = 1.609 | 1067.87
278.15 K, 100000 kPa, Constant-volume piezometry, m1 = 2.505 | 1079.44
278.15 K, 100000 kPa, Constant-volume piezometry, m1 = 3.376 | 1089.73
278.15 K, 100000 kPa, Constant-volume piezometry, m1 = 5.39 | 1110.78
278.15 K, 100000 kPa, Constant-volume piezometry, m1 = 8 | 1133.5
278.15 K, 100000 kPa, Constant-volume piezometry, m1 = 10.99 | 1154.43
278.15 K, 100000 kPa, Constant-volume piezometry, m1 = 12.8 | 1165.23
279.15 K, 101 kPa, Vibrating tube method, m1 = 0.093 | 1001.56
